These results are taken from patent US12509431B2, “1,4-dihydroquinazolinone compounds and uses thereof” (Edgewise Therapeutics, Inc., priority 2022, dated 2025).

Assay [1] has as its target T1, Porcine Ventricle myofibrils (left ventricle of Yucatan minipigs) (Sus scrofa, UniProt P79293).
T1 construct: Myofibrils from porcine cardiac muscle was isolated from the left ventricle of Yucatan minipigs; tissue Exemplar Genetics; host or cells: left ventricle of Yucatan minipigs
Put plainly: Myofibril ATPase assay (PK/LDH NADH-coupled), ventricle myofibrils. It is filed as biochemical. An outline of the steps:
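Yucatan minipig left-ventricle myofibrils; ATPase measured by PK/LDH-coupled NADH loss at 340 nm, read every 1.5-2 min for 75 min. Slopes normalized to vehicle (100%) and fit to 4-parameter logistic model; EC25 and, for inhibitors, EC50 calculated.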

Assay [2] has as its system Rabbit Skeletal myofibrils (rabbit psoas muscle). Put plainly: Myofibril ATPase assay (PK/LDH NADH-coupled), skeletal myofibrils. It is filed as biochemical. An outline of the steps:
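Rabbit psoas myofibrils in pCa (PIPES/CaCl2/EGTA, pH 7.0) buffer; ADP coupled via PK/LDH to NADH loss, read at 340 nm every 1.5–2 min for 75 min. Slopes normalized to vehicle (100%) and fit to 4-parameter logistic for EC25, plus EC50 for inhibitors.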

T1 sequence (P79293 whole entry): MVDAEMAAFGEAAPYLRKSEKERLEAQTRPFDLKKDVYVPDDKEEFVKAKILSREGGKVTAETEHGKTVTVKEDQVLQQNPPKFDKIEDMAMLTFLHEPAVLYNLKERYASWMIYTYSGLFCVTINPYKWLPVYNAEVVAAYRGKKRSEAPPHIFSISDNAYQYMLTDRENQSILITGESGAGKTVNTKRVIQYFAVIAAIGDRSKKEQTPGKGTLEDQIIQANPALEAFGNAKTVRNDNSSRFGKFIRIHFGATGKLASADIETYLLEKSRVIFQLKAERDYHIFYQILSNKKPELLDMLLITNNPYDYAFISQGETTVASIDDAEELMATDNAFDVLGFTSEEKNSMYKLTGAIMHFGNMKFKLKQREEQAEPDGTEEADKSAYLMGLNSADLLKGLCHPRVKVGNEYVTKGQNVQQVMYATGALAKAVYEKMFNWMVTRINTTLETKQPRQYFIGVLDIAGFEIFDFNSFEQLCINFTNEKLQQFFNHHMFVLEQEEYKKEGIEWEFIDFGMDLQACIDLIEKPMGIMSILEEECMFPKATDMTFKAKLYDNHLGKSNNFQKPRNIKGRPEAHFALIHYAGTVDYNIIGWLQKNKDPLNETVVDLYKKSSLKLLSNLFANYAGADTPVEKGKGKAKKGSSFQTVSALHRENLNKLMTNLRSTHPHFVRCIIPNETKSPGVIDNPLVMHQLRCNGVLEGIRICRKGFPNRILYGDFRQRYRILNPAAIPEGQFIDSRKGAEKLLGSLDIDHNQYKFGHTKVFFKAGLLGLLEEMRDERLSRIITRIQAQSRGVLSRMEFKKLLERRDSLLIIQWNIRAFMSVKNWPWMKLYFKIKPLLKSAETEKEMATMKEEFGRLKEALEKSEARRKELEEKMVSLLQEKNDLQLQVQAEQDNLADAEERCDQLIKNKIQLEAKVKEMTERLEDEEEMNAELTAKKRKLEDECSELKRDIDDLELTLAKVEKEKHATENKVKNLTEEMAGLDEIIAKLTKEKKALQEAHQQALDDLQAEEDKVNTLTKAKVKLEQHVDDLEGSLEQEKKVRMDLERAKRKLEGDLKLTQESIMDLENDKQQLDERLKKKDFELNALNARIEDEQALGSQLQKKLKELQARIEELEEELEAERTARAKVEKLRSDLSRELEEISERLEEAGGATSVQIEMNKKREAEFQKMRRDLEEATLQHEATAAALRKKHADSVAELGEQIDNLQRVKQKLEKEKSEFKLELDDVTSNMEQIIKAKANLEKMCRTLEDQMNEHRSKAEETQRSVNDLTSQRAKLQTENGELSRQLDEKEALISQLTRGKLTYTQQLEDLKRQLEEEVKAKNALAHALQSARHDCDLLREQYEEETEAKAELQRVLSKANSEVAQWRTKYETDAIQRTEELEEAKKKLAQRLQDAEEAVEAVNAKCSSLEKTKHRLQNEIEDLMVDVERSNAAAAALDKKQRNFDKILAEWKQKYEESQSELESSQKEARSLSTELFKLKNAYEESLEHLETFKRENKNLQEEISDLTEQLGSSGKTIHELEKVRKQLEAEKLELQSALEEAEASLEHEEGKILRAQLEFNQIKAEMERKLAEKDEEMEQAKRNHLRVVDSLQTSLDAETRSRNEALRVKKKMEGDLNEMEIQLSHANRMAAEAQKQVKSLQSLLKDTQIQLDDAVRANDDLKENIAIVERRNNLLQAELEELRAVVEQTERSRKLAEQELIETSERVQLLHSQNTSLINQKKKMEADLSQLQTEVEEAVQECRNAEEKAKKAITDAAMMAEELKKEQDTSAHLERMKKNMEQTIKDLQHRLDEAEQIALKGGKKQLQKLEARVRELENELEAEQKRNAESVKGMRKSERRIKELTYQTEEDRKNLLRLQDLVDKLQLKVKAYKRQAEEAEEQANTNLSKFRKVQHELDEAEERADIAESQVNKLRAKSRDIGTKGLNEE

In the case of `N#Cc1cnc2c(c1)OCC2NC(=O)CN1Cc2c(ccc(F)c2F)NC1=O` (single isomer, unassigned) [Compound B65], in assay [1] (Table 8), the “Porcine Ventricle IC25” value amounted to 166.7 nM. Also, the “Rabbit Psoas IC25” value in assay [2] (Table 8) came out at 19.1 nM.

For the compound `CC(NC(=O)CN1Cc2cc(F)ccc2NC1=O)c1ccc(C#N)cc1F` (single isomer, unassigned) [Compound B206], in assay [1] (Table 8), the “Porcine Ventricle IC25” value is 47.69 nM. In addition, the “Rabbit Psoas IC25” value in assay [2] (Table 8) was 11.29 nM.

Take `C[C@@H](NC(=O)CN1Cc2c(ccc(F)c2F)NC1=O)c1ncc(C#N)cc1F` [Compound B141, (R)—N-(1-(5-cyano-3-fluoropyridin-2-yl)ethyl)-2-(5,6-difluoro-2-oxo-1,4-dihydroquinazolin-3(2H)-yl)acetamide]: the “Porcine Ventricle IC25” value in assay [1] (Table 8) stood at 3094 nM. In assay [2] (Table 8), the “Rabbit Psoas IC25” value was found to be 422.8 nM.

As for `O=C(CN1Cc2cc(F)ccc2NC1=O)N[C@@H]1COc2cc(F)cc(F)c21` [Compound B145], in assay [1] (Table 8), the “Porcine Ventricle IC25” value amounted to 51.2 nM. Moreover, the “Rabbit Psoas IC25” value in assay [2] (Table 8) turned out to be 11.6 nM.

As for `O=C(CN1Cc2c(ccc(F)c2F)NC1=O)N[C@@H]1COc2cc(F)cc(F)c21` [Compound B147], the “Porcine Ventricle IC25” value in assay [1] (Table 8) was 77.66 nM. The “Rabbit Psoas IC25” value in assay [2] (Table 8) was determined as 16.23 nM.

For the compound `C[C@H](NC(=O)CN1Cc2c(ccc(F)c2F)NC1=O)c1ccc(C#N)cc1F` [Compound B189], the “Porcine Ventricle IC25” value in assay [1] (Table 8) was determined as 77.43 nM. For the same compound, in assay [2] (Table 8), the “Rabbit Psoas IC25” value is 18.79 nM.

With `C[C@H](NC(=O)CN1Cc2c(ccc(F)c2F)NC1=O)c1ncc(F)cc1F` [Compound B191], the “Porcine Ventricle IC25” value in assay [1] (Table 8) was 191.3 nM. In addition, in assay [2] (Table 8), the “Rabbit Psoas IC25” value is 20.19 nM.

For `C[C@H](NC(=O)CN1Cc2cc(F)ccc2NC1=O)c1ncc(C#N)cc1F` [Compound B199], the “Porcine Ventricle IC25” value in assay [1] (Table 8) amounted to 569.3 nM. Further, the “Rabbit Psoas IC25” value in assay [2] (Table 8) was 39.4 nM.

As to `C[C@H](NC(=O)CN1Cc2cc(F)ccc2NC1=O)c1ccc(F)cc1F` [Compound B247, N-[(1S)-1-(2,4-Difluorophenyl)ethyl]-2-(6-fluoro-2-oxo-1,4-dihydroquinazolin-3-yl)acetamide], the “Porcine Ventricle IC25” value in assay [1] (Table 8) was 296.8 nM. Also, in assay [2] (Table 8), the “Rabbit Psoas IC25” value stood at 32.05 nM.

For the compound `O=C(CN1C(=O)Nc2cccnc2C12CC2)N[C@@H]1COc2cc(F)cc(F)c21` [Compound N33], the “Porcine Ventricle IC25” value in assay [1] (Table 7) was determined as 283.2 nM. Moreover, in assay [2] (Table 7), the “Rabbit Psoas IC25” value stood at 19.37 nM.
